Reference: patent US20250313563A1, “GLYCOGEN SYNTHASE KINASE 3 INHIBITORS AND USES THEREOF” (The Broad Institute, Inc., priority 2022, published 2025)
Read-outs that look alike come from different tables or passages of the source.

What was measured:
[1] = target: GSK3α (GST-full length GSK3α) (Homo sapiens (Human), UniProt P49840); assay: GSK3α TR-FRET kinase assay; format: biochemical
In short: (§1)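 Full-length GST-tagged human enzyme (1 nM) is exposed to test compound for 30 min before substrates are added. Phosphorylation of a primed biotinylated glycogen synthase peptide proceeds 100 min at room temperature at low ATP (4 μM α; 2 μM β) or high ATP (1 mM). Product is quantified by TR-FRET.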

[2] = target: GSK3b (GST-full length GSK3b) (Homo sapiens (Human), UniProt P49841); assay: GSK3b TR-FRET kinase assay; format: biochemical
In short: as §1

[3] = 1 nM GSK3α, 4 μM ATP, 30 minute preincubation, read-out: GSK3-A TR-FRET BIOCHEMICAL (TR-FRET), IC50
[4] = 1 nM GSK3b, 2 μM ATP, 30 minute preincubation, read-out: GSK3-B TR-FRET BIOCHEMICAL (TR-FRET), IC50
[5] = 1 nM GSK3α, 4 μM ATP, 30 minute preincubation, Table 16, read-out: GSK3-A TR-FRET BIOCHEMICAL (TR-FRET)
[6] = 1 nM GSK3b, 2 μM ATP, 30 minute preincubation, Table 16, read-out: GSK3-B TR-FRET BIOCHEMICAL (TR-FRET)

GSK3α (GST-full length GSK3α), sequence (P49840 whole entry): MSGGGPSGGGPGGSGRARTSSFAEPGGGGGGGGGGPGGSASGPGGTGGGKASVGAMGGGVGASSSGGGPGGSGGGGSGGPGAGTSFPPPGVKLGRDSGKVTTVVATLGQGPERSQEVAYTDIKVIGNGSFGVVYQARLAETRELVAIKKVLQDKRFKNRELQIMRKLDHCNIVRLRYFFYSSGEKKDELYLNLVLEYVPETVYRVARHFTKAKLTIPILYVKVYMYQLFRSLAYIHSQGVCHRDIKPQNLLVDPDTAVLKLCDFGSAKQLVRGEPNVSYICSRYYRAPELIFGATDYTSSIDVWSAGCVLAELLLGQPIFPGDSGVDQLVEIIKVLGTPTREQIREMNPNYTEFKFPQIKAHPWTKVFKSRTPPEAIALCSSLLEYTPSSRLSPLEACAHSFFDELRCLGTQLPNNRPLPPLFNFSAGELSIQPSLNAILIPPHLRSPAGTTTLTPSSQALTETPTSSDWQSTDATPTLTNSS
GSK3b (GST-full length GSK3b), sequence (P49841 whole entry): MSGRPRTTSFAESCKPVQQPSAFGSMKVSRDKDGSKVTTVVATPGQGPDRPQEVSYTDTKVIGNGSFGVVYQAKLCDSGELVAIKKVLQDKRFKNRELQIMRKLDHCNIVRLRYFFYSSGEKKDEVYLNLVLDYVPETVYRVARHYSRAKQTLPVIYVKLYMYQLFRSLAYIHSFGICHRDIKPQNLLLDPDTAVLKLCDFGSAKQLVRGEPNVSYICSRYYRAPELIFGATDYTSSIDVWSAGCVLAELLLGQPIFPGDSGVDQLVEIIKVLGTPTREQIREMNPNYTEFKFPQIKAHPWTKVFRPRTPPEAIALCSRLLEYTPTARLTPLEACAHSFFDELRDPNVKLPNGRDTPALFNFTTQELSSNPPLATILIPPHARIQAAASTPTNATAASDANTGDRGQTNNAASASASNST

Row | Structure (SMILES) | IC50 [1, 3] [nM] | IC50 [2, 4] [nM] | other results
1 | CC1(C)CC(=O)C2=C(C1)Nc1n[nH]cc1C21COC2(CN(C(=O)C3CCC4(CC3)COC4)C2)C1 (stereo not shown) [Compound 944075] | ≤ 100 | 100 to 1000 | –
2 | CCC1(c2cccc(N(C)c3nccc(C)n3)c2)C2=C(CC(C)(C)CC2=O)Nc2n[nH]cc21 (stereo not shown) [Compound 945328] | – | – | IC50 [1, 5]: ≤ 100 nM; IC50 ([1]; read-out: GSK3-A (TR-FRET 1 mM ATP), GMean, IC50, 1 mM ATP, geometric mean): ≤ 100 nM; IC50 [2, 6]: ≤ 100 nM; IC50 ([2]; read-out: GSK3-B (TR-FRET 1 mM ATP), GMean, IC50, 1 mM ATP, geometric mean): 100 to 1000 nM
3 | CC[C@]1(c2cccc(N(C)c3nccc(C)n3)c2)C2=C(CC(C)(C)CC2=O)Nc2n[nH]cc21 [Compound 945329] | – | – | IC50 [1, 5]: 100 to 1000 nM; IC50 [2, 6]: 1000 to 5000 nM
4 | CCC1(c2cccc(C(F)(F)F)c2)C2=C(CC(c3ccccc3)NC2=O)Nc2n[nH]cc21 (stereo not shown) [Compound 945363] | 1000 to 5000 | > 5000 | –
5 | CC[C@]1(c2cccc(C(F)(F)F)c2)C2=C(C[C@H](c3ccccc3)NC2=O)Nc2n[nH]cc21 [Compound 945364] | > 5000 | > 5000 | –
6 | CCC1(c2cccc(C(F)(F)F)c2)C2=C(CN(C)C2=O)Nc2n[nH]cc21 (stereo not shown) [Compound 945367] | 100 to 1000 | 1000 to 5000 | –
7 | CC[C@]1(c2cccc(C(F)(F)F)c2)C2=C(CN(C)C2=O)Nc2n[nH]cc21 [Compound 945368] | > 5000 | > 5000 | –
8 | CC[C@@]1(c2cccc(C(F)(F)F)c2)C2=C(CN(c3ccccc3)C2=O)Nc2n[nH]cc21 [Compound 945376] | > 5000 | > 5000 | –
9 | CCC1(c2cccc(C(F)(F)F)c2)C2=C(CN(c3ccccc3)C2=O)Nc2n[nH]cc21 (stereo not shown) [Compound 945377] | 100 to 1000 | 1000 to 5000 | –
10 | CCC1(c2cccc(C(F)(F)F)c2)C2=C(Nc3n[nH]cc31)C(C)NC2=O (stereo not shown) [Compound 945378] | ≤ 100 | 100 to 1000 | –
11 | CCC1(c2cccc(C(F)(F)F)c2)C2=C(Nc3n[nH]cc31)C(C)NC2=O (stereo not shown) [Compound 945379] | 100 to 1000 | 1000 to 5000 | –
12 | CC[C@]1(c2cccc(C(F)(F)F)c2)C2=C(Nc3n[nH]cc31)[C@@H](C)NC2=O [Compound 945380] | > 5000 | > 5000 | –
13 | CC[C@]1(c2cccc(C(F)(F)F)c2)C2=C(Nc3n[nH]cc31)[C@H](C)NC2=O [Compound 945381] | > 5000 | > 5000 | –
14 | CCC1(c2cccc(C(F)(F)F)c2)C2=C(Nc3n[nH]cc31)C(C)CNC2=O (stereo not shown) [Compound 945382] | ≤ 100 | 100 to 1000 | –
15 | CC[C@@]1(c2cccc(C(F)(F)F)c2)C2=C(Nc3n[nH]cc31)[C@H](C)CNC2=O [Compound 945383] | ≤ 100 | 100 to 1000 | –
16 | CCC1(c2cccc(C(F)(F)F)c2)C2=C(Nc3n[nH]cc31)C(C)CNC2=O (stereo not shown) [Compound 945384] | 1000 to 5000 | > 5000 | –
17 | CC[C@]1(c2cccc(C(F)(F)F)c2)C2=C(Nc3n[nH]cc31)[C@H](C)CNC2=O [Compound 945385] | > 5000 | > 5000 | –
18 | CC1(C)CC(=O)C2=C(C1)Nc1n[nH]cc1C21CCC(C(=O)N2CCCC2)CC1 (stereo not shown) [Compound 945394] | – | – | IC50 [1, 5]: 100 to 1000 nM; IC50 [2, 6]: 1000 to 5000 nM
19 | CN(C)C(=O)C1CCC2(CC1)C1=C(CC(C)(C)CC1=O)Nc1n[nH]cc12 (stereo not shown) [Compound 945395] | – | – | IC50 ([1]; 1 nM GSK3α, 4 μM ATP, 30 minute preincubation, Table 16, read-out: GSK3-A TR-FRET BIOCHEMICAL (TR-FRET), IC50): 100 to 1000 nM; IC50 ([2]; 1 nM GSK3b, 2 μM ATP, 30 minute preincubation, Table 16, read-out: GSK3-B TR-FRET BIOCHEMICAL (TR-FRET), IC50): 1000 to 5000 nM
20 | CC1(C)CC(=O)C2=C(C1)Nc1n[nH]cc1C21CCC(C(=O)N2CCCC2)CC1 (stereo not shown) [Compound 945396] | – | – | IC50 [1, 5]: 100 to 1000 nM; IC50 [2, 6]: 100 to 1000 nM
21 | CNC(=O)C1CCC2(CC1)C1=C(CC(C)(C)CC1=O)Nc1n[nH]cc12 (stereo not shown) [Compound 945397] | – | – | IC50 [1, 5]: 100 to 1000 nM; IC50 [2, 6]: 100 to 1000 nM
22 | CC1(C)CC(=O)C2=C(C1)Nc1n[nH]cc1C21COC2(CN(C(=O)C3CCOCC3)C2)C1 (stereo not shown) [Compound 945407] | ≤ 100 | 100 to 1000 | –
23 | CCC1(c2cccc(-c3ccnc(C)c3OC)c2)C2=C(CC(C)(C)CC2=O)Nc2n[nH]cc21 (stereo not shown) [Compound 945458] | – | – | IC50 [1, 5]: ≤ 100 nM; IC50 [2, 6]: ≤ 100 nM
24 | CCC1(c2cccc(-c3cn[nH]c3)c2)C2=C(CC(C)(C)NC2=O)Nc2n[nH]c(C)c21 (stereo not shown) [Compound 945459] | ≤ 100 | ≤ 100 | –
25 | CCC1(c2cccc(-c3cn(C)nc3C)c2)C2=C(CC(C)(C)NC2=O)Nc2n[nH]c(C)c21 (stereo not shown) [Compound 945460] | ≤ 100 | ≤ 100 | –
